Source: patent publication US10959430B2, “Compositions and methods for repelling coleopterans” (ISCA TECHNOLOGIES, INC., priority 2015, dated 2021)

Experiments:
CBB = details: dosage and verbenone type not given in the study; cited from earlier work
[1] = tested on: CBB (coffee berry borer, Hypothenemus hampei); test: Dislodging of CBB from coffee berries in a sealed petri dish; format: in vivo; details: both male and female CBBs
Excerpt: Our testing involved application of approximately 0.2 g of SPLAT Verb in approximately a 6-inch petri dish. (SPLAT Verb is loaded with 10% verbenone by weight.) This area would correspond to 0.0000045ac of land; therefore, our field application rate would be approximately 44 kg of SPLAT Verb (4,400 g of verbenone) per acre. Coffee berries, commonly used to rear CBB, were placed in the petri dish. The 0.2 g of SPLAT Verb was introduced into the sealed petri dish. We then went on to measure the times when CBB dislodged or exited the berry. The number dislodged is a summation of the total dislodged at that point in time. Our data (as shown in Table 3) verifies that CBB exited their preferred host and, after dislodging, maintained high activity levels without re-entering the berries.

Structure (SMILES) | response of CBB to path containing verbenone (CBB) | effect of exposure on male and female CBBs in the coffee berry [1]
CC1=CC(=O)[C@@H]2C[C@H]1C2(C)C [verbenone] | unattractive | 
CC1=CC(=O)[C@H]2C[C@@H]1C2(C)C [(1S)-(−)-Verbenone] |  | dislodge from the coffee berry
